# Laboratory results taken from ChEMBL document CHEMBL1156935, “Discovery of potent BACE-1 inhibitors containing a new hydroxyethylene (HE) scaffold: exploration of P1' alkoxy residues and an aminoethylene (AE) central core” (Bioorg Med Chem, 2010).
# Columns and labels:
# Beta-secretase 1 = Beta-secretase 1 (Homo sapiens, UniProt P56817)
# Description: Inhibition of human BACE1 expressed in Escherichia coli BL21(DE3) by resolved fluorescence assay
# Cathepsin D = Cathepsin D (Homo sapiens, UniProt P07339)
# Description: Inhibition of human cathepsin D
# Homo sapiens = species: Homo sapiens; assay: Selectivity for human BACE1 over human cathepsin D
# Chain of Cathepsin D (P07339 65-162 limits assumed): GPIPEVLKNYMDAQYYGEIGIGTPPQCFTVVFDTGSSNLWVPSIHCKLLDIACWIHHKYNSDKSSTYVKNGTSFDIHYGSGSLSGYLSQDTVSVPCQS
# Chain of Cathepsin D (P07339 169-412 limits assumed): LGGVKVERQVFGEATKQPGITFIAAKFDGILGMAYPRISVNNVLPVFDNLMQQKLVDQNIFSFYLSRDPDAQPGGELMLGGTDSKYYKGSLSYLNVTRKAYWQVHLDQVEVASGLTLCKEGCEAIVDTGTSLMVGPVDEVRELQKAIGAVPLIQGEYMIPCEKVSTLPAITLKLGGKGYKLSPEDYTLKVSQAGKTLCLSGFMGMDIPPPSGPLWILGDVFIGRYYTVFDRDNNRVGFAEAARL
# Chain of Beta-secretase 1 (P56817 whole entry): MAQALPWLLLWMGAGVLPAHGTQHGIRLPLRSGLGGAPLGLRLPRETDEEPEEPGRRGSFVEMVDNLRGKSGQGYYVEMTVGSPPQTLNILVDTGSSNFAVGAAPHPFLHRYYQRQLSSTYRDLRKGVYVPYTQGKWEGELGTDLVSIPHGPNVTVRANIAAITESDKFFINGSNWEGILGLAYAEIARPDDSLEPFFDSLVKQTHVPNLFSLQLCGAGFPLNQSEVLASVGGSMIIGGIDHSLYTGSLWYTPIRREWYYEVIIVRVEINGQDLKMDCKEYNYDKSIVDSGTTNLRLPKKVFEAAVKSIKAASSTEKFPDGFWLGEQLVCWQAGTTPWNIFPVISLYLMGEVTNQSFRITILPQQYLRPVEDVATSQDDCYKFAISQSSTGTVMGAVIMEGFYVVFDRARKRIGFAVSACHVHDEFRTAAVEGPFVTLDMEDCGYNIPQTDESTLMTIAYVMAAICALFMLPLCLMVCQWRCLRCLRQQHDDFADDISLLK
Ki (Beta-secretase 1) [µM],Ki (Cathepsin D) [µM],Ratio Ki (Homo sapiens),SMILES
0.14,> 5,–,"CO[C@H](C[C@H](N)C(COc1cc(F)cc(F)c1)NC(=O)c1cc(C(=O)N[C@H](C)c2ccccc2)cc(N(C)S(C)(=O)=O)c1)C(=O)N[C@H](C(=O)NCc1ccccc1)C(C)C (single isomer, unassigned)"
0.02,0.062,1.6,CC(C)[C@H](NC(=O)[C@@H](C[C@H](O)[C@H](COc1cc(F)cc(F)c1)NC(=O)c1cc(C(=O)N[C@H](C)c2ccccc2)cc(N(C)S(C)(=O)=O)c1)OCc1ccccc1)C(=O)NCc1ccccc1
0.07,> 5,–,"CO[C@H](C[C@H](N=[N+]=[N-])C(COc1cc(F)cc(F)c1)NC(=O)c1cc(C(=O)N[C@H](C)c2ccccc2)cc(N(C)S(C)(=O)=O)c1)C(=O)N[C@H](C(=O)NCc1ccccc1)C(C)C (single isomer, unassigned)"
0.13,> 5,–,"CO[C@H](CCC(COc1cc(F)cc(F)c1)NC(=O)c1cc(C(=O)N[C@H](C)c2ccccc2)cc(N(C)S(C)(=O)=O)c1)C(=O)N[C@H](C(=O)NCc1ccccc1)C(C)C (single isomer, unassigned)"
0.0033,0.13,–,C=CCO[C@H](C[C@H](O)[C@H](COc1cc(F)cc(F)c1)NC(=O)c1cc(C(=O)N[C@H](C)c2ccccc2)cc(N(C)S(C)(=O)=O)c1)C(=O)N[C@H](C(=O)NCc1ccccc1)C(C)C
0.0013,–,–,CC(C)[C@H](NC(=O)[C@@H](C[C@H](O)[C@H](COc1cc(F)cc(F)c1)NC(=O)c1cc(C(=O)N[C@H](C)c2ccccc2)cc(N(C)S(C)(=O)=O)c1)OCC1CC1)C(=O)NCc1ccccc1
0.003,0.061,–,CCCO[C@H](C[C@H](O)[C@H](COc1cc(F)cc(F)c1)NC(=O)c1cc(C(=O)N[C@H](C)c2ccccc2)cc(N(C)S(C)(=O)=O)c1)C(=O)N[C@H](C(=O)NCc1ccccc1)C(C)C
0.0021,3.35,> 1500,CCO[C@H](C[C@H](O)[C@H](COc1cc(F)cc(F)c1)NC(=O)c1cc(C(=O)N[C@H](C)c2ccccc2)cc(N(C)S(C)(=O)=O)c1)C(=O)N[C@H](C(=O)NCc1ccccc1)C(C)C
